Each structure is given as a SMILES string. Where two headings read alike, the source gives them in different places. Some results are limits rather than exact numbers.

9 molecules from US4797488A, “Psychotropic polycyclic imides” (American Home Products Corporation, priority 1987, dated 1989) can be followed below.

For experiment [1], the system named is conditioned avoidance responding. Put plainly: Conditioned avoidance, discrete trial (lever press), oral. Format: in vivo, rat. As to conditions: for Conditioned avoidance, discrete trial AB50 (Avoidance Block): p.o. The source says:
(§1) The antipsychotic properties of the compounds of this invention were established by standard pharmacologically accepted procedures involving conditioned avoidance studies in which trained male CD rats (Charles River), 400-450 g. body weight are exposed to a fifteen second warning tone (conditioned stimulus) continued for an additional fifteen seconds accompanied by electric shock. The rat can avoid the electric shock by jumping to an exposed shelf (shelf-jump response). A response during the initial warning tone is considered an avoidance response, while a response during shock delivery is considered as escape response. The shelf-jump response test procedure follows that of Herman et al., Comm. in Psychopharm., 3, pp. 165-171 (1979). The compounds of this invention were tested at a single dose (40 mg./kg. i.p.) in this procedure and were rated relative to their inhibition of conditioned avoidance responding. A similar test procedure in which a lever press was substituted for a shelf-jump was used to establish the oral (p.o) activity of the test compounds. Orally active compounds were tested over a full dose range and the Avoidance Block activities reported as "AB50 's" (mg./kg.).

For experiment [2], the target named is T1, 5-HT1A serotonin receptor (Rattus norvegicus, UniProt P19327).
T1 construct: 44: 1685-1696, 1985; from tissue
T1 sequence (P19327 1-422): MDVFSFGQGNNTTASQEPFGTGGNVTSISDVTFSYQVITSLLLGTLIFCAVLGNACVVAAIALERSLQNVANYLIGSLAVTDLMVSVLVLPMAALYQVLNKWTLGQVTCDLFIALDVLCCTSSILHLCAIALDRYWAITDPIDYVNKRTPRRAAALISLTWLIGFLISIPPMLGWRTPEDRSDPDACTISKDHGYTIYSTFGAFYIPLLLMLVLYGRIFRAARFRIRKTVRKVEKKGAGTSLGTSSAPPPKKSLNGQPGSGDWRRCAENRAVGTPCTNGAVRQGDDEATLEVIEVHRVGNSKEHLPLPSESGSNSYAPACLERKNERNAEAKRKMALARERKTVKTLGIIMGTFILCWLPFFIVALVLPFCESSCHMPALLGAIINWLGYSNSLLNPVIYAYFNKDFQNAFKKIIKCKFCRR
The experiment in a line: Inhibition of [3H] 8-OH DPAT binding. As to conditions: for Ki / inhibition at 1 µM: 5-HT1A.
Text: 8-OH DPAT (dipropylaminotetralin) from the 5-HT1A serotonin receptor by the procedure of Hall et al., J. Neurochem.

A further experiment concerns the target T2, D-2 dopamine receptor (Rattus norvegicus, UniProt P61169).
T2 construct: from tissue; host or cells: limbic brain tissue
Put plainly: [3H]Spiroperidol binding inhibition, homogenized limbic brain tissue. The source says: The results of this testing with compounds representative of the invention whose production is exemplified,infra, are as follows: […]

Experiment [3] has as its system conditioned avoidance responding. The experiment in a line: Conditioned avoidance, shelf-jump response test. The format is in vivo, male CD rats (Charles River). As to conditions: ip, single dose, rat.
Text: as §1

Experiment [4] has as its system apomorphine-induced stereotyped behavior and climbing. Put plainly: Antagonism of apomorphine-induced stereotyped behavior and climbing. Format: in vivo, CF-1 mice (Charles River). Conditions: mice; for ED50: Mus musculus; for Ratio of the ED50 for stereotyped behavior to the ED50 for climbing: apomorphine-induced stereotypy/climbing.
Setting [5] is: head: p.o. (text: i.p.), apomorphine 1 mg/kg s.c., read-out: Apomorphine antagonism ED50, climbing.
The mark [6] stands for this setting: head: p.o. (text: i.p.), apomorphine 1 mg/kg s.c., read-out: Apomorphine antagonism ED50, stereotypy.
Setting [7] is: head: p.o. (text: i.p.), apomorphine 1 mg/kg s.c.

T2 sequence (P61169 whole entry): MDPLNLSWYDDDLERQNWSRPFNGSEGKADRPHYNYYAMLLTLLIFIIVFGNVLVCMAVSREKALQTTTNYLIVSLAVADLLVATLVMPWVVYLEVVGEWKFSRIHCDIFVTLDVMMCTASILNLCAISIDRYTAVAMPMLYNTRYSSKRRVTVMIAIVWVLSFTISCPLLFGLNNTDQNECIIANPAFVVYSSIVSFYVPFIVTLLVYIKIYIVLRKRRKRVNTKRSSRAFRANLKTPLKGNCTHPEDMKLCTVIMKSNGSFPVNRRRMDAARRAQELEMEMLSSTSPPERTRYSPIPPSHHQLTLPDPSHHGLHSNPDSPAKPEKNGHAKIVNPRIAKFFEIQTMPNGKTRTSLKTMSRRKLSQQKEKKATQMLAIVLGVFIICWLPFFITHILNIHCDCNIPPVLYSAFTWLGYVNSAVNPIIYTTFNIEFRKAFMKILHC

One may read the Ki as a dissociation constant, usually derived from enzyme kinetics or from competition with a known ligand. Broadly, the inhibition in vivo is the percentage by which the read-out fell short of the control. Higher therefore signals a response far below the control. For `COc1ccccc1N1CCN(CCCCN2C(=O)C3CC(C2=O)C2C3C3C4CC5C3C5C42)CC1` (centres unmarked) [Example 10, Decahydro-3-[4-[4-(2-methoxyphenyl)-1-piperazinyl]butyl]-1,5-methano-6,7,9-metheno-2H-pentaleno[1,2-d]azepine-2,4(3H)-dione], in experiment [1], the “Conditioned avoidance, discrete trial AB50 (Avoidance Block)” value was “inactive”. Besides, the Ki is 0.29 nM in experiment [2] and 18 nM at D-2 dopamine receptor. For the same molecule, the inhibition in vivo at 40 mg/kg in experiment [3] was greater than 20%. Besides, the figures for the ED50 in experiment [4] (setting [5]) and in experiment [4] (setting [6]) were 4.71 mg/kg and 10 mg/kg, respectively.
The term inhibition denotes the change of the read-out against control, counted positive when it falls. A low value points to a response near the control. Regarding `O=C1C2CC(C(=O)N1CCCCN1CCN(c3cccc(C(F)(F)F)c3)CC1)C1CCCC21` (centres unmarked) [Example 11, Hexahydro-3-[4-[4-(3-trifluoromethylphenyl)-1-piperazinyl]butyl]-1,5-methano-cyclopent[d]azepine-2,4(1H, 3H)-dione], the ED50 in experiment [1] (Rattus norvegicus, po, read-out: Conditioned avoidance, discrete trial AB50 (Avoidance Block)) amounted to 46.2 mg/kg; in experiment [4] (setting [5]), 18.9 mg/kg; in experiment [4] (setting [6]), 42.4 mg/kg. For the same molecule, in experiment [2], affinity was put at a Ki of 2 nM. At D-2 dopamine receptor, this molecule showed an inhibition at 1 µM of 100%. Further, the inhibition in vivo at 40 mg/kg in experiment [3] is greater than 20%.
As to `O=C1C2CC(C(=O)N1CCCCN1CCN(c3ccc4ccccc4n3)CC1)C1C2C2C3CC4C2C4C31` (centres unmarked) [Example 14, Decahydro-3-[4-[4-(2-quinolyl)-1-piperazinyl]butyl]-1,5-methano-6,7,9-methano-2H-pentaleno[1,2-d]azepine-2,4(3H)-dione], the inhibition at 1 µM in experiment [2] is 86%; at D-2 dopamine receptor it was 45%. In experiment [3], the inhibition in vivo at 40 mg/kg is roughly 20%. In experiment [4] (setting [5]), the ED50 is 44 mg/kg. Also, the “Apomorphine antagonism ED50, stereotypy” value in experiment [4] (setting [7]) is “inactive”.
With `O=C1C2CC(C(=O)N1CCCCN1CCN(c3cncc(Cl)n3)CC1)C1CC=CC21` (centres unmarked) [Example 5, 5,5a,8,8a-Tetrahydro-3-[4-[4-(6-chloro-2-pyrazinyl)-1-piperazinyl]butyl]-1,5-methanocyclopent[d]azepine-2,4(1H,3H)-dione], the “Conditioned avoidance, discrete trial AB50 (Avoidance Block)” value in experiment [1] was “active”. In experiment [2], the Ki is 60 nM. Besides, the inhibition at 1 µM at D-2 dopamine receptor is 25%. Also, the inhibition in vivo at 40 mg/kg in experiment [3] is greater than 20%. The ED50 in experiment [4] (setting [5]) is 47.2 mg/kg. Moreover, in experiment [4] (setting [7]), the “Apomorphine antagonism ED50, stereotypy” value is “inactive”.
For `O=C1CC2(CCCC2)CC(=O)N1CCCCN1CCN(c2ncccn2)CC1` [buspirone, reference compound], in experiment [2] ([3H] 8-OH DPAT displacement), the “Affinity for 5-HT1A serotonin receptor (in words)” value is “potent affinity”.
In the case of `O=C1C2CC(C(=O)N1CCCCN1CCN(c3cccc(C(F)(F)F)c3)CC1)C1C2C2C3CC4C2C4C31` (centres unmarked) [Example 12, Decahydro-3-[4-[4-(3-trifluoromethylphenyl)-1-piperazinyl]butyl]-1,5-methano-6,7,9-metheno-2H-pentaleno[1,2-d]azepine-2,4(3H)-dione], the results for the Ki (in experiment [2]; on D-2 dopamine receptor) were 0.2 nM and 30 nM, respectively. This molecule also gave an inhibition in vivo at 40 mg/kg in experiment [3] of less than 20%. Moreover, in experiment [4] (setting [7]), the “Apomorphine antagonism ED50, climbing” value was “inactive”. Further, the “Apomorphine antagonism ED50, stereotypy” value in experiment [4] (setting [7]) is “inactive”.
Take `O=C(CCCN1CCC(O)(c2ccc(Cl)cc2)CC1)c1ccc(F)cc1` [haloperidol, reference compound]: in experiment [4], the “Ratio of the ED50 for stereotyped behavior to the ED50 for climbing” value was determined as 1.00.
Take `O=C1C2CC(C(=O)N1CCCCN1CCN(c3cncc(Cl)n3)CC1)c1ccccc12` [Example 9, 2,3,4,5-Tetrahydro-3-[4-[4-(6-chloro-2-pyrazinyl)-1-piperazinyl]butyl]-1,5-methano-1H-3-benzazepine-2,4(3H, 5H)-dione]: the inhibition at 1 µM in experiment [2] was found to be 61%; on D-2 dopamine receptor it was 0%. Also, the inhibition in vivo at 40 mg/kg in experiment [3] was greater than 20%. For the same molecule, the “Apomorphine antagonism ED50, stereotypy” value in experiment [4] (setting [7]) was “inactive”.
For `CN(C)CCCN1c2ccccc2Sc2ccc(Cl)cc21` [chlorpromazine, reference compound], in experiment [4], the “Ratio of the ED50 for stereotyped behavior to the ED50 for climbing” value came out at 1.51.
